Laboratory results reported in patent US20100210559A1, “TRAP-14 AS A THERAPEUTIC AGENT” (priority 2007, published 2010).
No end group written: not given here.

Test system: drug-resistant Mycobacterium tuberculosis
Conditions: drug-resistant Mycobacterium tuberculosis (PAS, streptomycin, INH); peptide 10 micrograms per ml; seven days

Question: With SFLLRNPNDKYEPF-OH [TRAP-14] as the substance, how does the “% inhibition” value read?
Answer: 0.0%
